Source: patent US7960376B2, “Benzo-fused heterocycles” (priority 2007, dated 2011)

Key:
Type in all cases: cell-based
[1] = target: human CB1 receptor (hCB1) (Homo sapiens, UniProt P21554); assay: cAMP assay (LANCE TR-FRET) in CHO-K1 cells expressing hCB1; details: intracellular cAMP, NKH-477 prestimulated, + agonist, − inverse agonist
[2] = target: human CB2 receptor (hCB2) (Homo sapiens, UniProt P34972); assay: cell-based; details: intracellular cAMP, CHO-K1 cells, NKH-477 prestimulated, + agonist, − inverse agonist
Sequence of human CB2 receptor (hCB2) (P34972 whole entry): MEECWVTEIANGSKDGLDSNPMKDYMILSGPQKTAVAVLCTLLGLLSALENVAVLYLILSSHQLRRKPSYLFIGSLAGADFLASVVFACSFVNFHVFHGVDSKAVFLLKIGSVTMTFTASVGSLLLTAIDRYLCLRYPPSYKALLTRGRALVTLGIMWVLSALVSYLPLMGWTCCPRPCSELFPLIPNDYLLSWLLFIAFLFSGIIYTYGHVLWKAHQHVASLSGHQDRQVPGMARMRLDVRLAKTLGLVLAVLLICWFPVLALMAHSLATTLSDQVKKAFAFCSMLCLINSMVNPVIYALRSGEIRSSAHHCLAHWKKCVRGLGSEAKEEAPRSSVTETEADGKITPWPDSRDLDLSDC

rat CB2 receptor (rCB2) = target: T1, rat CB2 receptor (rCB2) (Rattus norvegicus, UniProt Q9QZN9); assay: cell-based; details: intracellular cAMP, CHO-K1 cells, NKH-477 prestimulated, + agonist, − inverse agonist
T1 sequence (Q9QZN9 1-360): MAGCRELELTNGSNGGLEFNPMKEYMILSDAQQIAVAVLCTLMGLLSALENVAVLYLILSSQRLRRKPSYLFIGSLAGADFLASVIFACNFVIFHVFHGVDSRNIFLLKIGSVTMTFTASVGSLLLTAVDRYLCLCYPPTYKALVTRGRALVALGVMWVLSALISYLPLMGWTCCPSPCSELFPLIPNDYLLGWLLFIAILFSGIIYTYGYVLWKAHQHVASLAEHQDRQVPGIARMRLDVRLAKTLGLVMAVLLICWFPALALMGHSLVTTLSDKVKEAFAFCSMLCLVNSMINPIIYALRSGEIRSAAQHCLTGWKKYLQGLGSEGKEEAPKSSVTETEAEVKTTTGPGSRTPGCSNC

Sequence of human CB1 receptor (hCB1) (P21554 whole entry): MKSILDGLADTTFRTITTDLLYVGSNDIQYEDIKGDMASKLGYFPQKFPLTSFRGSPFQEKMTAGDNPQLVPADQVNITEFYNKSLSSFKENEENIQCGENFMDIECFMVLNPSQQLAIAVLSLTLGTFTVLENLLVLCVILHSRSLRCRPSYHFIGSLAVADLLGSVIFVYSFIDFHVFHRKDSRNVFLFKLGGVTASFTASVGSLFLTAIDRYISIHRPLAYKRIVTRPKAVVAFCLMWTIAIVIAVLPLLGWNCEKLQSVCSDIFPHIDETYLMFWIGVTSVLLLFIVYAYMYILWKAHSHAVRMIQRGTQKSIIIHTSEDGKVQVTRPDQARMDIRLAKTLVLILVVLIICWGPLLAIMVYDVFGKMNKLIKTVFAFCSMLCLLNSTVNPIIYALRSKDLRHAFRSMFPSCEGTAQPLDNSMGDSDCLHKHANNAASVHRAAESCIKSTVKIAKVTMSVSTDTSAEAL

Row | Structure (SMILES) | hCB1 EC50 range [1] | hCB2 EC50 range [2] | rCB2 EC50 range (rat CB2 receptor (rCB2)) | also measured
1 | CC(C)CNC(=O)c1ccc2c(c1)N(C(=O)c1ccc(Cl)cc1)CCS2 [Example 1, 4-(4-chlorobenzoyl)-N-isobutyl-3,4-dihydro-2H-benzo[b][1,4]thiazine-6-carboxamide] | −E | −E | – | –
2 | CC(C)CNC(=O)c1ccc2c(c1)N(C(=O)c1ccccc1)CCS2 [Example 2, 4-benzoyl-N-isobutyl-3,4-dihydro-2H-benzo[b][1,4]thiazine-6-carboxamide] | −E | −E | −C | –
3 | CC(C)CNC(=O)c1ccc2c(c1)N(C(=O)c1ccc(F)cc1)CCS2 [Example 3, 4-(4-fluorobenzoyl)-N-isobutyl-3,4-dihydro-2H-benzo[b][1,4] thiazine-6-carboxamide] | −E | – | −E | –
4 | Cc1ccc(C(=O)N2CCSc3ccc(C(=O)NCC(C)C)cc32)cc1 [Example 4, N-isobutyl-4-(4-methylbenzoyl)-3,4-dihydro-2H-benzo[b][1,4] thiazine-6-carboxamide] | −E | −E | – | –
5 | COc1ccc(C(=O)N2CCSc3ccc(C(=O)NCC(C)C)cc32)cc1 [Example 5, N-isobutyl-4-(4-meth-oxybenzoyl)-3,4-di-hydro-2H-benzo[b] [1,4]thiazine-6-carboxamide] | −E | −E | −E | –
6 | CC(C)(C)NC(=O)c1ccc2c(c1)N(C(=O)c1ccc(F)cc1)CCS2 [Example 6, N-tert-butyl-4-(4-fluorobenzoyl)-3,4-dihydro-2H-benzo[b][1,4] thiazine-6-carboxamide] | −E | – | −E | –
7 | COc1ccc(C(=O)N2CCSc3ccc(C(=O)NC(C)(C)C)cc32)cc1 [Example 7, N-tert-butyl-4-(4-methoxybenzoyl)-3,4-dihydro-2H-benzo[b] [1,4]thiazine-6-carboxamide] | −E | – | −E | –
8 | Cc1ccc(C(=O)N2CCSc3ccc(C(=O)NC(C)(C)C)cc32)cc1 [Example 8, N-tert-butyl-4-(4-methylbenzoyl)-3,4-dihydro-2H-benzo[b][1,4]thiazine-6-carboxamide] | −E | – | – | –
9 | O=C(NC1CCCC1)c1ccc2c(c1)N(C(=O)c1ccc(F)cc1)CCS2 [Example 12, N-cyclopentyl-4-(4-fluorobenzoyl)-3,4-dihydro-2H-benzo[b] [1,4]thiazine-6-carboxamide] | −E | – | −D | –
10 | Cc1ccc(C(=O)N2CCSc3ccc(C(=O)NC4CCCC4)cc32)cc1 [Example 13, N-cyclopentyl-4-(4-methylbenzoyl)-3,4-dihydro-2H-benzo[b] [1,4]thiazine-6-carboxamide] | – | – | – | EC50 ([1]; read-out: hCB1 EC50 range): > 10 µM; EC50 ([2]; read-out: hCB2 EC50 range): > 10 µM; EC50 (rat CB2 receptor (rCB2); read-out: rCB2 EC50 range): > 10 µM
11 | CCC(=O)N1CCSc2ccc(C(=O)NC34CC5CC(CC(C5)C3)C4)cc21 [Example 39, N-(1-adamantyl)-4-propionyl-3,4-dihydro-2H-benzo[b][1,4]thiazine-6-carboxamide] | −E | – | −E | –
12 | O=C(NC12CC3CC(CC(C3)C1)C2)c1ccc2c(c1)N(S(=O)(=O)c1ccc(F)cc1)CCS2 [Example 51, N-(1-adamantyl)-4-(4-fluorophenylsulfonyl)-3,4-dihydro-2H-benzo[b][1,4]thiazine-6-carboxamide] | +D | – | −C | –
13 | CN(C)C(=O)c1ccc2c(c1)N(S(=O)(=O)c1ccc(F)cc1)CCS2 [Example 69, 4-(4-fluorophenylsulfonyl)-N,N-dimethyl-3,4-dihydro-2H-benzo[b][1,4]thiazine-6-carboxamide] | – | +E | +D | –
14 | CCN(CC)C(=O)c1ccc2c(c1)N(S(=O)(=O)c1ccc(F)cc1)CCS2 [Example 70, N,N-diethyl-4-(4-fluorophenylsulfonyl)-3,4-dihydro-2H-benzo[b][1,4]thiazine-6-carboxamide] | – | +D | +C | –
15 | CN(C)C(=O)c1ccc2c(c1)N(S(=O)(=O)c1ccc(C(F)(F)F)cc1)CCS2 [Example 72, N,N-dimethyl-4-(4-(trifluoromethyl)phenylsulfonyl)-3,4-dihydro-2H-benzo[b][1,4]thiazine-6-carboxamide] | – | +C | +C | –
16 | O=C(c1ccc2c(c1)N(S(=O)(=O)c1ccc(C(F)(F)F)cc1)CCS2)N1CCCC1 [Example 74, pyrrolidin-1-yl(4-(4-(trifluoromethyl)phenylsulfonyl)-3,4-dihydro-2H-benzo[b][1,4]thiazin-6-yl)methanone] | – | +E | −C | –
17 | O=C(c1ccc2c(c1)N(S(=O)(=O)c1ccc(C(F)(F)F)cc1)CCS2)N1CCOCC1 [Example 76, morpholino(4-(4-(trifluoromethyl)phenylsulfonyl)-3,4-dihydro-2H-benzo[b][1,4]thiazin-6-yl)methanone] | – | +D | +C | –
18 | O=C(NNC(=O)c1ccc2c(c1)N(S(=O)(=O)c1ccc(F)cc1)CCS2)c1ccccc1 [Example 78, N′-benzoyl-4-(4-fluorophenylsulfonyl)-3,4-dihydro-2H-benzo[b][1,4]thiazine-6-carbohydrazide] | – | +E | +D | –
19 | O=C(NNC(=O)c1ccc2c(c1)N(S(=O)(=O)c1ccc(C(F)(F)F)cc1)CCS2)c1ccccc1 [Example 79, N′-benzoyl-4-(4-(trifluoromethyl)phenylsulfonyl)-3,4-dihydro-2H-benzo[b][1,4]thiazine-6-carbohydrazide] | – | +D | +D | –
20 | O=S(=O)(c1ccc(C(F)(F)F)cc1)N1CCSc2ccc(-c3nc(-c4ccccn4)no3)cc21 [Example 81, 3-(pyridin-2-yl)-5-(4-(4-(trifluoromethyl)phenylsulfonyl)-3,4-dihydro-2H-benzo[b][1,4]thiazin-6-yl)-1,2,4-oxadiazole] | – | +B | +A | –
21 | CCc1noc(-c2ccc3c(c2)N(S(=O)(=O)c2ccccc2)CCS3)n1 [Example 86] | – | +B | +A | –
22 | CC(C)CNC(=O)c1ccc2c(c1)N(S(=O)(=O)c1ccccc1)CCC(C)(C)S2 [Example 92, N-isobutyl-2,2-dimethyl-5-(phenyl-sulfonyl)-2,3,4,5-tetrahydrobenzo[b][1,4] thiazepine-7-carboxamide] | −E | – | −E | –
23 | CC1(C)CCN(S(=O)(=O)c2ccccc2)c2cc(C(=O)N3CCCCC3)ccc2S1 [Example 93, (2,2-dimethyl-5-(phenylsulfonyl)-2,3,4,5-tetrahydro-benzo[b][1,4]thiazepin-7-yl)(piperidin-1-yl)methanone] | −E | – | +C | –
24 | CC1(C)CCN(S(=O)(=O)c2ccccc2)c2cc(C(=O)N3CCOCC3)ccc2S1 [Example 94, (2,2-dimethyl-5-(phenylsulfonyl)-2,3,4,5-tetrahydro-benzo[b][1,4]thiazepin-7-yl)(morpholino)-methanone] | – | +E | +D | –
25 | COC(=O)[C@@H](NC(=O)c1ccc2c(c1)N(S(=O)(=O)c1ccccc1)CCC(C)(C)S2)C(C)(C)C [Example 95, (S)-methyl 2-(2,2-dimethyl-5-(phenyl-sulfonyl)-2,3,4,5-tetrahydrobenzo[b][1,4]thiazepine-7-carboxamido)-3,3-dimethylbutanoate] | −D | +D | – | –
26 | CC(C)(C)CNC(=O)c1ccc2c(c1)N(S(=O)(=O)c1ccccc1)CCC(C)(C)S2 [Example 96, 2,2-dimethyl-N-neo-pentyl-5-(phenyl-sulfonyl)-2,3,4,5-tetrahydrobenzo[b][1,4] thiazepine-7-carboxamide] | −D | +D | – | –
27 | C[C@@H](NC(=O)c1ccc2c(c1)N(S(=O)(=O)c1ccccc1)CCC(C)(C)S2)C(C)(C)C [Example 97, (R)-N-(3,3-dimethyl-butan-2-yl)-2,2-dimethyl-5-(phenyl-sulfonyl)-2,3,4,5-tetrahydrobenzo[b][1,4] thiazepine-7-carboxamide] | −D | +D | – | –
28 | CC1(C)CCN(S(=O)(=O)c2ccc(F)cc2)c2cc(C(=O)NCC3CCOCC3)ccc2S1 [Example 99, 5-(4-fluorophenyl-sulfonyl)-2,2-dimethyl-N-((tetrahydro-2H-pyran-4-yl)methyl)-2,3,4,5-tetrahydro-benzo[b][1,4]thiazepine-7-carboxamide] | −E | – | −C | –
29 | Cc1nnc(-c2ccc3c(c2)N(S(=O)(=O)c2cn(C)cn2)CCS3)o1 [Example 106, 2-methyl-5-(4-(1-methyl-1H-imidazol-4-ylsulfonyl)-3,4-dihydro-2H-benzo[b][1,4]thiazin-6-yl)-1,3,4-oxadiazole] | – | +E | +D | –
30 | O=S(=O)(c1ccc(C(F)(F)F)cc1)N1CCSc2ccc(-c3ncc(-c4ccccc4)[nH]3)cc21 [Example 107, 6-(5-phenyl-1H-imidazol-2-yl)-4-(4-(trifluoromethyl)phenylsulfonyl)-3,4-dihydro-2H-benzo[b][1,4]thiazine] | – | +C | +B | –
